Tested on: C. sporogenes spores ATCC 3584
Experiment: In-vitro experiment to evaluate ability of test formulations to remove spores from skin like surfaces (Vitro-Skin, finger bag collection method)
Conditions: for log reduction of spores (in words): higher concentrations (1%)
Source text: The in-vitro method was designed to evaluate the removal of microbes from skin using a synthetic skin material from the cosmetic industry, Vitro-skin from IMS inc, Portland METhis method enables rapid screening of formulations for their propensity to promote release of microbes from skin and may be predictive of in-vivo activity.
The following materials were utilized. C. sporogenes spores ATCC 3584˜1.0×10^8 CFU/ml; Triton-X 100 sampling buffer (pH 7.4) Filter Sterilized: 0.4 g KH2PO4, 10.1 g Na2HPO4, 1 g Triton-X 100, and 1 L dH2O; D/E neutralizing broth; Fingers from disposable polyethylene gloves (VWR 32915-268); Sterile dH2O (WFI quality water); 3M AC Petrifilm; and 5 ml Falcon tubes; 1.5 ml EPI Centrifuge tubes; Petri Dishes; Vitro-Skin IMS Inc.; and double-sided tape.
The method included the following. Punched-out specified number of Vitro-Skin samples using the ¾″ punch. Attached punch-out Vitro-Skin samples to a Petri-dish or any other sterile flat surface using double-sided tape. Contaminated the Vitro-Skin samples accordingly with 10 μl of spores/spore prep (˜1×10^6 CFU/Sample). Used the pipette tip to spread spores over the surface and used a new pipette tip for each sample. Allowed the samples to dry (˜40 minutes). Placed three samples directly into separate finger bags containing 3 ml of triton-x 100 sampling solution or D/E neutralizing broth if one of the samples going to be tested contains antimicrobials. Used the “Finger bag collection method” below for each of the three recovery controls.
The Finger bag collection method was carried out as follows. First, a finger bag was cut from disposable gloves.
For the controls: Filled the finger bag with 3 ml of sampling solution. Placed contaminated Vitro-Skin sample into the finger bag containing sampling solution. Massaged finger bag for 1 minute using thumb and index finger. Removed aliquot of fluid from the finger bag and place into an appropriately labeled 1.5 ml centrifuge tube.
For the tested samples: Placed contaminated Vitro-Skin sample into a finger bag containing 3 ml of appropriate test solution. Massage in finger bag for 20 seconds. Removed the Vitro-Skin sample from the finger bag and place into a new finger bag containing 3 ml of sampling solution (Triton x-100 glove juice buffer or D/E neutralizing broth). Collected sample by using the finger bag collection method noted above. Repeat “Placed contaminated vitro-skin sample . . . ” to “Collected sample . . . ” for each of the test solutions.
For best statistical data each test solution was repeated 3 times. Heat treated appropriately labeled 1.5 ml centrifuge tubes containing aliquots of solution for 20 min at 80 C. Serially diluted samples in butterfield's buffer and plate 10^-1 to 10^-4 dilution on AC Petrifilm. Heat shocked, diluted, and plated spore stock day of experiment. Incubated Petrifilm in an anaerobic chamber at 37 C for 20-24 hours. Counted plates and analyzed data.

[1] = Example 3, added to water, all concentrations

Molecule | log reduction of spores (in words) (Example 3) | spore removal (in words) [1] | further results
CCCCCCCCN=c1ccn(CCCCCCCCCCn2ccc(=NCCCCCCCC)cc2)cc1.Cl.Cl [octinidine, N,N′-(decane-1,10-diyldipyridin-1-yl-4-ylidene)dioctan-1-amine dihydrochloride] | – | – | spore removal (in words) (Example 3, higher concentration): unaffected
Cc1cc(O)cc(C)c1Cl [PCMX, 4-chloro-3,5-dimethylphenol] | good log reduction of spores | – | –
Oc1cc(Cl)ccc1Oc1ccc(Cl)cc1Cl [Triclosan, 5-chloro-2-(2,4-dichlorophenoxy)phenol] | good log reduction of spores | – | –
benzalkonium chloride | – | poor spore removal | –
N=C(NCCCCCCNC(=N)NC(=N)Nc1ccc(Cl)cc1)NC(=N)Nc1ccc(Cl)cc1.O=C(O)[C@H](O)[C@@H](O)[C@H](O)[C@H](O)CO.O=C(O)[C@H](O)[C@@H](O)[C@H](O)[C@H](O)CO [chlorhexidine gluconate, Chlorhexidine gluconate] | – | poor spore removal | spore removal (in words) (Example 6, Tables 6a/6b): poor spore removal

— US11634666B2, “Methods for spore removal comprising a polysorbate surfactant and cationic antimicrobial mixture” (3M INNOVATIVE PROPERTIES COMPANY, priority 2015, dated 2023)
